The values that follow come from patent publication US8093394B2, “Derivatives of 5-thioxylopyranose and use of same for treatment” (Laboratoires Fournier S.A., priority 2006, dated 2012).

The subject of the test is venous thrombosis. The test can be described thus: venous thrombosis test in rats, activity via the oral route (venous stasis under hypercoagulation with factor Xa, Wessler technique). Type of test: in vivo. As to conditions: dose 6 mg/kg, thrombosis induced 2 h after administration, male Wistar rats. Here is the method:
The antithrombotic activity of the compounds according to the invention was studied in vivo in rats by virtue of a test in which a venous thrombosis is reproduced. The venous thrombosis was induced according to the protocol described in Thromb. Haemost., 1992, 67(1), 176-179. The activity via the oral route was studied according to the procedure described below. The experiment is carried out on non-fasting male Wistar rats weighing from 250 to 280 g and divided into groups of 10 animals each. The test products are administered orally (intubation) in solution or in suspension in a 0.5% solution of methylcellulose in water. The concentrations of the compounds are calculated so as to bring about the absorption of an amount of solution of 10 ml/kg orally. A thrombosis is induced at a time T after the administration of the product and the thrombus formed is removed and weighed. In order to induce this thrombosis, a venous stasis is brought about under hypercoagulation, according to the technique described by Wessler (J. Applied Physiol., 1959, 943-946), using a solution of activated factor X (Xa), supplied by Biogenic (Montpellier) and comprising a dose of 7.5 nKat/kg, as hypercoagulant. The venous stasis is brought about 10 seconds exactly after the injection of the hypercoagulant. The activity of the test compounds is monitored at various doses, after they have been administered. The thrombosis is induced 2 hours after the administration of the compound. By way of example, the results of the above tests are given in the following table for a few compounds according to the invention (the activity is expressed by the percentage of inhibition of the formation of the thrombus, observed in the presence of the compound according to the invention, with respect to the weight of the thrombus formed in the absence of the compound).
In the case of `O[C@@H]1[C@@H](O)[C@H](Oc2ccc(-c3ccncc3)nc2F)SC[C@H]1O` [Example 22, 2-Fluoro-6-(4-pyridinyl)-3-pyridinyl 5-thio-β-D-xylopyranoside], the “Activity (percentage of inhibition of the formation of the thrombus, with respect to the weight of the thrombus formed in the absence of the compound)” value amounted to 100%.
The same measure for `O[C@@H]1[C@@H](O)[C@H](Oc2ccc(-c3ccncc3)nc2Cl)SC[C@H]1O` [Example 24, 2-Chloro-6-(4-pyridinyl)-3-pyridinyl 5-thio-β-D-xylopyranoside]: 96%; for `O[C@@H]1[C@@H](O)[C@H](Oc2cncc(-c3ccc(Cl)nc3)c2)SC[C@H]1O` [Example 30, 5-(6-Chloro-3-pyridinyl)-3-pyridinyl 5-thio-β-D-xylopyranoside]: 97%.
The value for `O[C@@H]1[C@@H](O)[C@H](Oc2ccc(-c3cccnc3Cl)nc2)SC[C@H]1O` [Example 40, 6-(2-Chloro-3-pyridinyl)-3-pyridinyl 5-thio-β-D-xylopyranoside] was 96%.
Turning to `O[C@@H]1[C@@H](O)[C@H](Oc2ccc(-c3cccs3)nc2)SC[C@H]1O` [Example 108, 6-(2-Thienyl)-3-pyridinyl 5-thio-β-D-xylopyranoside], the “Activity (percentage of inhibition of the formation of the thrombus, with respect to the weight of the thrombus formed in the absence of the compound)” value came to 95%.
The value for `O[C@@H]1[C@@H](O)[C@H](Oc2ccc(-c3ccncc3)nc2)SC[C@H]1O` [Example 122, 6-(4-Pyridinyl)-3-pyridinyl 5-thio-β-D-xylopyranoside] was 93%.
The same measure for `O[C@@H]1[C@@H](O)[C@H](Oc2ccnc(-c3ccncc3)c2)SC[C@H]1O` [Example 130, 2-(4-Pyridinyl)-4-pyridinyl 5-thio-β-D-xylopyranoside]: 91%; for `Cc1oncc1-c1ccc(O[C@@H]2SC[C@@H](O)[C@H](O)[C@H]2O)cn1` [Example 140, 6-(5-Methyl-4-isoxazolyl)-3-pyridinyl 5-thio-β-D-xylopyranoside]: 96%; for `Cc1cncc(-c2ccc(O[C@@H]3SC[C@@H](O)[C@H](O)[C@H]3O)cn2)c1` [Example 142, 6-(5-Methyl-3-pyridinyl)-3-pyridinyl 5-thio-β-D-xylopyranoside]: 97%.
`Cn1cc(-c2ncc(O[C@@H]3SC[C@@H](O)[C@H](O)[C@H]3O)cc2F)cn1` [Example 224, 5-Fluoro-6-(1-methyl-1H-pyrazol-4-yl)-3-pyridinyl 5-thio-β-D-xylopyranoside]: the “Activity (percentage of inhibition of the formation of the thrombus, with respect to the weight of the thrombus formed in the absence of the compound)” value amounted to 99%.
As for `Cc1noc(C)c1-c1ncc(O[C@@H]2SC[C@@H](O)[C@H](O)[C@H]2O)cc1F` [Example 226, 6-(3,5-Dimethyl-4-isoxazolyl)-5-fluoro-3-pyridinyl 5-thio-β-D-xylopyranoside], the “Activity (percentage of inhibition of the formation of the thrombus, with respect to the weight of the thrombus formed in the absence of the compound)” value was determined as 97%.
